Read-outs that look alike come from different tables or passages of the source.
Key:
[1] = test system: pancreatic cancer line Capan-1 cells; experiment: CTG (CellTiter-Glo) cell viability assay, 6×6 combo matrix, 72 h, Capan-1; format: cell-based; conditions: Homo sapiens, CAPAN-1; read-out: Relatively Cell inhibition of vehicle control
Description: To measure the cell inhibition effect of compounds and synergy effect of test articles on ten (10) cell lines using standard CTG assay.
b. A549, T47D, SK-OV-3, MKN45, SK-Hep-1, HT-29, Capan-1, 786-O and LNCaP cell line, for compounds and vehicle groups, the seeding density of cell lines is 3000 cells/80 µL per well. For blank groups, add 100 µL medium. For PBS groups, add 100 µL PBS.
8) Incubate the U87MG, A549, T47D, SK-OV-3, MKN45, SK-Hep-1, HT-29, Capan-1, 786-O and LNCaP cells overnight at 37° C./5% CO2.
5) Incubate the plates at 37° C./5% CO2 for 72 hours.
6) Read plates in Envision.

[2] = test system: breast cancer line T47D cells;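 note: luminescence read-out after 72 h at 37 °C under 5% CO2, with medium-only wells as blanks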
[3] = test system: prostate adenocarcinoma line LNCap cells;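 note: luminescence signal read after adding CellTiter-Glo reagent, with cells exposed to compounds for 72 h at 37 °C under 5% CO2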
Description: (§1) 7) Using complete cell medium, adjust the volume of the suspension to achieve a cell concentration.
(§2) Solid compound of cis-platinum was solubilized in PBS to a stock solution of 3.333 mM.
(§3) Final volume is 100 µL per well at this point.
(§4) 1) Incubate the plates at room temperature and away from light for 30 minutes.
(§5) 3) Add 100 µL /well of CellTiter-Glo® Reagent in each well. Avoid light.
(§6) 4) Mix contents for 2 minutes on an orbital shaker.
(§7) 5) Incubate plate at room temperature for 10 minutes to stabilize the luminescent signal.

[4] = test system: kidney cancer line 786-O cells;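 note: luminescence read-out after adding CellTiter-Glo reagent, with cells incubated at 37 °C under 5% CO2 during compound exposure, part of a ten cell line synergy study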
Description: as §1, §2, §3, §4, §5, §6, §7

[5] = test system: Liver cancer line SK-HEP-1 cells;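 note: luminescent signal read after 72 h compound exposure at 37 °C under 5% CO2, with medium-only wells serving as blank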
Description: as §1, §2, §3, §4, §5, §6, §7

[6] = test system: ovarian cancer line SK-OV3 cells;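 note: luminescent signal read after CellTiter-Glo addition, cells exposed to compounds for 72 h at 37 °C under 5% CO2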
Description: as §1, §2, §3, §4, §5, §6, §7

[7] = test system: breast cancer line T47D cells; experiment: CTG (CellTiter-Glo) cell viability assay, 6×6 combo matrix, 72 h, T47D; conditions: Homo sapiens;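 note: luminescence read-out after 72 h at 37 °C under 5% CO2, with medium-only wells as blanks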
[8] = test system: colorectal cancer line HT29 cells; experiment: CTG (CellTiter-Glo) cell viability assay, 6×6 combo matrix, 72 h, HT29; conditions: Homo sapiens, HT-29, read-out: Relatively Cell inhibition of vehicle control(%);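 note: cells exposed to compounds for 72 hours at 37 °C under 5% CO2, then viability read as luminescence after adding CellTiter-Glo Reagent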
Description: as §1, §2, §3, §4, §5, §6, §7

[9] = test system: glioblastoma line U87MG cells; experiment: CTG (CellTiter-Glo) cell viability assay, 6×6 combo matrix, 72 h, U87MG; conditions: Homo sapiens, U-87 MG;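 note: U87MG cells seeded at 2000 per well, exposed 72 h, viability read by CellTiter-Glo luminescence, inhibition expressed relative to vehicle-treated wells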
Description: as §1
U87MG cell lines, for compounds and vehicle groups, the seeding density of cell lines is 2000 cells/80 µL per well. For blank groups, add 100 µL medium. For PBS groups, add 100 µL PBS.
as §2, §3, §4, §5, §6, §7

[10] = test system: kidney cancer line 786-O cells; experiment: CTG (CellTiter-Glo) cell viability assay, 6×6 combo matrix, 72 h, 786-O; conditions: Homo sapiens, 786-0, read-out: Relatively Cell inhibition of vehicle control;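 note: luminescence read-out after adding CellTiter-Glo reagent, with cells incubated at 37 °C under 5% CO2 during compound exposure, part of a ten cell line synergy study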
Description: as §1, §2, §3, §4, §5, §6, §7

[11] = test system: Liver cancer line SK-HEP-1 cells; experiment: CTG (CellTiter-Glo) cell viability assay, 6×6 combo matrix, 72 h, SK-Hep-1; conditions: Homo sapiens;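 note: luminescent signal read after 72 h compound exposure at 37 °C under 5% CO2, with medium-only wells serving as blank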
Description: as §1, §2, §3, §4, §5, §6, §7

Compound: COc1cccc2c1C(=O)c1c(O)c3c(c(O)c1C2=O)C[C@@](O)(C(=O)CO)C[C@@H]3O[C@H]1C[C@H](N)[C@H](O)[C@H](C)O1 [doxorubicin]
- inhibition at 0.08 µM [1]: 44.8%
- inhibition at 0.4 µM [1]: 68%
- inhibition at 2 µM [1]: 86.9%
- inhibition at 10 µM [1]: 74.9%
- inhibition [2]: 0.17%
- inhibition [3]: 7.17%
- inhibition [4]: 3.98%
- inhibition [5]: 4.48%
- inhibition [6]: 2.75%
- inhibition at […] ([7]; read-out: Relatively Cell inhibition of vehicle control(%), T47D, 16 nM doxorubicin only (myricetin 0)): 6.02%
- inhibition at 0.08 µM ([7]; read-out: Relatively Cell inhibition of vehicle control(%), T47D, 80 nM doxorubicin only (LB-1 0)): 19.3%
- inhibition at 0.08 µM ([7]; read-out: Relatively Cell inhibition of vehicle control(%), T47D, 80 nM doxorubicin only (myricetin 0)): 23%
- inhibition at 0.4 µM ([7]; read-out: Relatively Cell inhibition of vehicle control(%), T47D, 400 nM doxorubicin only (LB-1 0)): 50.2%
- inhibition at 0.4 µM ([7]; read-out: Relatively Cell inhibition of vehicle control(%), T47D, 400 nM doxorubicin only (myricetin 0)): 53.7%
- inhibition at 2 µM ([7]; read-out: Relatively Cell inhibition of vehicle control(%), T47D, 2000 nM doxorubicin only (LB-1 0)): 51.6%
- inhibition at 2 µM ([7]; read-out: Relatively Cell inhibition of vehicle control(%), T47D, 2000 nM doxorubicin only (myricetin 0)): 59%
- inhibition at 10 µM ([7]; read-out: Relatively Cell inhibition of vehicle control(%), T47D, 10000 nM doxorubicin only (LB-1 0)): 45.3%
- inhibition at 10 µM ([7]; read-out: Relatively Cell inhibition of vehicle control(%), T47D, 10000 nM doxorubicin only (myricetin 0)): 48.1%
- inhibition at 0.08 µM [8]: 25.6%
- inhibition at 0.4 µM [8]: 61.1%
- inhibition at 2 µM [8]: 92.3%
- inhibition at 10 µM [8]: 79.1%
- inhibition at 0.08 µM ([9]; 72 h, read-out: Relatively Cell inhibition of vehicle control(%), U87MG, 80 nM doxorubicin only (LB-1 0), 72 h): 50%
- inhibition at 0.4 µM ([9]; 72 h, read-out: Relatively Cell inhibition of vehicle control(%), U87MG, 400 nM doxorubicin only (LB-1 0), 72 h): 91.3%
- inhibition at 2 µM ([9]; 72 h, read-out: Relatively Cell inhibition of vehicle control(%), U87MG, 2000 nM doxorubicin only (LB-1 0), 72 h): 72.4%
- inhibition at 10 µM ([9]; 72 h, read-out: Relatively Cell inhibition of vehicle control(%), U87MG, 10000 nM doxorubicin only (LB-1 0), 72 h): 78.4%
- inhibition at […] ([9]; read-out: Relatively Cell inhibition of vehicle control(%), doxorubicin 16 nM only): 27.4%
- inhibition at 0.08 µM ([9]; read-out: Relatively Cell inhibition of vehicle control(%), doxorubicin 80 nM only): 52.5%
- inhibition at 0.4 µM ([9]; read-out: Relatively Cell inhibition of vehicle control(%), doxorubicin 400 nM only): 93%
- inhibition at 2 µM ([9]; read-out: Relatively Cell inhibition of vehicle control(%), doxorubicin 2000 nM only): 78.3%
- inhibition at 10 µM ([9]; read-out: Relatively Cell inhibition of vehicle control(%), doxorubicin 10000 nM only): 80.8%
- inhibition at 0.08 µM [10]: 24%
- inhibition at 0.4 µM [10]: 64.9%
- inhibition at 2 µM [10]: 76.2%
- inhibition at 10 µM [10]: 83.8%
- inhibition at […] ([11]; SK-HEP1, read-out: Relatively Cell inhibition of vehicle control, doxorubicin 16 nM only (myricetin table)): 6.89%
- inhibition at 0.08 µM ([11]; SK-HEP1, read-out: Relatively Cell inhibition of vehicle control, doxorubicin 80 nM only (LB-1 table)): 31.3%
- inhibition at 0.08 µM ([11]; SK-HEP1, read-out: Relatively Cell inhibition of vehicle control, doxorubicin 80 nM only (myricetin table)): 25.5%
- inhibition at 0.4 µM ([11]; SK-HEP1, read-out: Relatively Cell inhibition of vehicle control, doxorubicin 400 nM only (LB-1 table)): 66.2%
- inhibition at 0.4 µM ([11]; SK-HEP1, read-out: Relatively Cell inhibition of vehicle control, doxorubicin 400 nM only (myricetin table)): 68.5%
- inhibition at 2 µM ([11]; SK-HEP1, read-out: Relatively Cell inhibition of vehicle control, doxorubicin 2000 nM only (LB-1 table)): 98.6%
- inhibition at 2 µM ([11]; SK-HEP1, read-out: Relatively Cell inhibition of vehicle control, doxorubicin 2000 nM only (myricetin table)): 98.5%
- inhibition at 10 µM ([11]; SK-HEP1, read-out: Relatively Cell inhibition of vehicle control, doxorubicin 10000 nM only (LB-1 table)): 99.4%
- inhibition at 10 µM ([11]; SK-HEP1, read-out: Relatively Cell inhibition of vehicle control, doxorubicin 10000 nM only (myricetin table)): 99.4%
